# Reference: patent publication US9687571B2, “Stabilization of radiopharmaceutical compositions using ascorbic acid” (Lantheus Medical Imaging, Inc., priority 2009, dated 2017)
# Columns and labels:
# [1] = Effect of ascorbic acid concentration on radiochemical purity (Example 4); format: physicochemical; conditions: pH 5.8, FIG. 3
# Protocol: The integrity of a radiopharmaceutical is measured by the radiochemical purity (RCP) of the radiolabeled compound using ITLC or more preferably HPLC. The advantage of using HPLC is that radio-impurities caused by radiolytic degradation can be separated from the radiopharmaceutical under certain chromatographic conditions. […] The radiopharmaceutical compositions of this invention are effective in maintaining the stability of samples for up to ten hours.
# This example describes the effect of ascorbic acid concentration on radiochemical purity. In this example, the radiochemical purity (RCP) of the ^18F-labeled drug product (2-tert-butyl-4-chloro-5-[4-(2-[^18F]fluoro-ethoxymethyl)-benzyloxy]-2H-pyridazin-3-one) was monitored for solutions having an ascorbic acid concentration range from 200 mg/mL (saturation level) to 20 mg/mL, at pH 5.8.
# [2] = Acid/base and solution properties of ascorbic acid; format: physicochemical; conditions: aqueous dose solution, pH 5.8
radiochemical purity (RCP) level ([1]; ascorbic acid 200 to 50 mg/mL),saturation level (concentration) [2] [mg/mL],SMILES,radiochemical purity (RCP) level ([1]; ascorbic acid 20 mg/mL)
do not significantly change,–,CC(C)(C)n1ncc(OCc2ccc(COCC[18F])cc2)c(Cl)c1=O [2-tert-butyl-4-chloro-5-[4-(2-[^18F]fluoro-ethoxymethyl)-benzyloxy]-2H-pyridazin-3-one],"increase in impurities (i.e., lower RCP level)"
–,200,O=C1O[C@H]([C@@H](O)CO)C(O)=C1O [Ascorbic acid],–
